From paper PMC5479551, “Development of a range of fluorescent reagentless biosensors for ATP, based on malonyl-coenzyme A synthetase” (PLoS ONE, 2017)
Where “and” joins values, the source holds several entries; their conditions need not be identical. Equal values may be shown once.

Key:
[1] = molecular target: T1, Parent (Rho-MatB) (Rhodopseudomonas palustris, UniProt Q6ND88, C106A/K488A/Q457C/R286C); test: Competition fluorescence titration of ATP into 0.5 µM parent Rho-MatB at fixed AMP (500 or 1000 µM) in 50 mM Hepes pH 7.0, 100 mM NaCl, 10 mM MgCl2, 0.3 mg/ml BSA, 20°C.; format: binding; conditions: read-out: KAMP (ATP titrated at fixed AMP)
T1 construct: N-terminal His6-tag, expressed in E. coli; two tetramethylrhodamines (5-IATR) on introduced cysteines
T1 sequence (Q6ND88 entry or part of it C106A/R286C/Q457C/K488A): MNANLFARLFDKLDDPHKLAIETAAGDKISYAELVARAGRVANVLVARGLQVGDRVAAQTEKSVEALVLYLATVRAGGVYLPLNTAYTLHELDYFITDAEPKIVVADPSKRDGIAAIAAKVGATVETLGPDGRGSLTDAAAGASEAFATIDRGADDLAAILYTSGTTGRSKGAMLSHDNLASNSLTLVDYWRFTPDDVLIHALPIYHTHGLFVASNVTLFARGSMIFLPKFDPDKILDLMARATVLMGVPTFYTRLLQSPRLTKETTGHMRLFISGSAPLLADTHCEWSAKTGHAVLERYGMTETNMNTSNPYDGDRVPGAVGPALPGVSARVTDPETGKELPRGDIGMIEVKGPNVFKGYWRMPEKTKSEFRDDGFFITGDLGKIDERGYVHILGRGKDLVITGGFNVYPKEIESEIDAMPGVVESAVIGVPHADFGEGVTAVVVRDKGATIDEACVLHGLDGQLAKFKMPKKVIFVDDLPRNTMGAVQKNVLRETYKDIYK
Description: Fig 6 Competition titrations between ATP and AMP binding to Rho-MatB variants. Titrations were under conditions as Fig 2, using 0.5 μM of the Rho-MatB variant. (A) Titration of AMP into Rho-MatB complex with a fixed concentration of ATP: 7 μM for the parent Rho-MatB (“wt”) and S170A, 50 μM for T303A and 150 μM for T167A. One representative data set is shown. Fluorescence changes were fit to A0[ATP]/(K' +[ATP]), where the apparent dissociation constant for ATP, K' = KATP(1 + [AMP]/KAMP). KATP and KAMP are the actual dissociation constants for ATP and AMP and A0 is the total fluorescence change at that ATP concentration. Taking the previously obtained values for KATP, the values of KAMP were 169 ± 23 μM for the parent Rho-MatB, 225 ± 15 μM for S170A, and 300 ± 12 μM for T167A. […] Data were fitted to the equation above, giving KAMP as 233 ± 11 μM using 500 μM AMP and 255 ± 16 μM at 1000 μM AMP.
Doing the competition titration the other way round, fixing AMP, caused a shift in apparent dissociation constant of ATP. […] Alternatively, fitting the data as described in Fig 6 gave values for the AMP dissociation constant that were similar to those in Fig 6A. The amplitude of the signal changes only little with AMP, but the range of ATP concentrations over the maximal signal change, is increased as AMP increases

[2] = molecular target: T2, R169A Rho-MatB (Rhodopseudomonas palustris, UniProt Q6ND88, C106A/K488A/Q457C/R169A/R286C); test: Survey fluorescence titration of tetramethylrhodamine-labelled MatB variants with ATP in 50 mM Tris.HCl pH 7.5, 150 mM NaCl, 10 mM MgCl2, 0.3 mg/ml BSA, 20°C, without full optimization of labelling and purification.; format: binding
T2 construct: His6-tag, Rho-MatB background, two tetramethylrhodamines (5-IATR)
T2 sequence (Q6ND88 entry or part of it C106A/R169A/R286C/Q457C/K488A): as the sequence (Q6ND88 entry or part of it C106A/R286C/Q457C/K488A) above, with R169A counted along it
Description: (§1) Data from titrations to measure nucleotide binding were corrected for dilution and analyzed with a quadratic binding curve using Grafit software: F=Fmin+(Fmax−Fmin)×(Kd+L+P−(Kd+L+P)^2−4×P×L)/2×P where P and L are the total concentrations of protein and ligand, respectively, Kd is the dissociation constant, and Fmin and Fmax are the fluorescence intensities of the free and ligand- bound protein, respectively.
(§2) The labeled proteins were then tested for a fluorescence change upon ATP binding in the presence of Mg^2+ (Table 1). For variants showing a significant fluorescence change, the affinity for ATP was determined by titration (Table 1).

[3] = molecular target: T3, M302A Rho-MatB (Rhodopseudomonas palustris, UniProt Q6ND88, C106A/K488A/M302A/Q457C/R286C); test: as above; format: binding
T3 construct: His6-tag, Rho-MatB background, two tetramethylrhodamines (5-IATR)
T3 sequence (Q6ND88 entry or part of it C106A/R286C/M302A/Q457C/K488A): as the sequence (Q6ND88 entry or part of it C106A/R286C/Q457C/K488A) above, with M302A counted along it
Description: as §1, §2

[4] = molecular target: T4, T167S Rho-MatB (Rhodopseudomonas palustris, UniProt Q6ND88, C106A/K488A/Q457C/R286C/T167S); test: as above; format: binding
T4 construct: His6-tag, Rho-MatB background, two tetramethylrhodamines (5-IATR)
T4 sequence (Q6ND88 entry or part of it C106A/T167S/R286C/Q457C/K488A): as the sequence (Q6ND88 entry or part of it C106A/R286C/Q457C/K488A) above, with T167S counted along it
Description: as §1, §2

[5] = molecular target: T5, S164A Rho-MatB (Rhodopseudomonas palustris, UniProt Q6ND88, C106A/K488A/Q457C/R286C/S164A); test: as above; format: binding
T5 construct: His6-tag, Rho-MatB background, two tetramethylrhodamines (5-IATR)
T5 sequence (Q6ND88 entry or part of it C106A/S164A/R286C/Q457C/K488A): as the sequence (Q6ND88 entry or part of it C106A/R286C/Q457C/K488A) above, with S164A counted along it
Description: as §1, §2

[6] = molecular target: T6, R299A Rho-MatB (Rhodopseudomonas palustris, UniProt Q6ND88, C106A/K488A/Q457C/R286C/R299A); test: as above; format: binding
T6 construct: His6-tag, Rho-MatB background, two tetramethylrhodamines (5-IATR)
T6 sequence (Q6ND88 entry or part of it C106A/R286C/R299A/Q457C/K488A): as the sequence (Q6ND88 entry or part of it C106A/R286C/Q457C/K488A) above, with R299A counted along it
Description: as §1, §2

[7] = molecular target: T1, Parent (Rho-MatB); test: as above; format: binding
Description: as §1, §2

[8] = molecular target: T7, T303S Rho-MatB (Rhodopseudomonas palustris, UniProt Q6ND88, C106A/K488A/Q457C/R286C/T303S); test: as above; format: binding
T7 construct: His6-tag, Rho-MatB background, two tetramethylrhodamines (5-IATR)
T7 sequence (Q6ND88 entry or part of it C106A/R286C/T303S/Q457C/K488A): as the sequence (Q6ND88 entry or part of it C106A/R286C/Q457C/K488A) above, with T303S counted along it
Description: as §1, §2

[9] = molecular target: T8, Y300A Rho-MatB (Rhodopseudomonas palustris, UniProt Q6ND88, C106A/K488A/Q457C/R286C/Y300A); test: as above; format: binding
T8 construct: His6-tag, Rho-MatB background, two tetramethylrhodamines (5-IATR)
T8 sequence (Q6ND88 entry or part of it C106A/R286C/Y300A/Q457C/K488A): as the sequence (Q6ND88 entry or part of it C106A/R286C/Q457C/K488A) above, with Y300A counted along it
Description: as §1, §2

[10] = molecular target: T9, S170A Rho-MatB (Rhodopseudomonas palustris, UniProt Q6ND88, C106A/K488A/Q457C/R286C/S170A); test: as above; format: binding
T9 construct: His6-tag, Rho-MatB background, two tetramethylrhodamines (5-IATR)
T9 sequence (Q6ND88 entry or part of it C106A/S170A/R286C/Q457C/K488A): as the sequence (Q6ND88 entry or part of it C106A/R286C/Q457C/K488A) above, with S170A counted along it
Description: as §1, §2

[11] = molecular target: T10, T303A Rho-MatB (Rhodopseudomonas palustris, UniProt Q6ND88, C106A/K488A/Q457C/R286C/T303A); test: as above; format: binding
T10 construct: His6-tag, Rho-MatB background, two tetramethylrhodamines (5-IATR)
T10 sequence (Q6ND88 entry or part of it C106A/R286C/T303A/Q457C/K488A): as the sequence (Q6ND88 entry or part of it C106A/R286C/Q457C/K488A) above, with T303A counted along it
Description: as §1, §2

[12] = molecular target: T11, T163A Rho-MatB (Rhodopseudomonas palustris, UniProt Q6ND88, C106A/K488A/Q457C/R286C/T163A); test: as above; format: binding
T11 construct: His6-tag, Rho-MatB background, two tetramethylrhodamines (5-IATR)
T11 sequence (Q6ND88 entry or part of it C106A/T163A/R286C/Q457C/K488A): as the sequence (Q6ND88 entry or part of it C106A/R286C/Q457C/K488A) above, with T163A counted along it
Description: as §1, §2

[13] = molecular target: T12, Q490A Rho-MatB (Rhodopseudomonas palustris, UniProt Q6ND88, C106A/K488A/Q457C/Q490A/R286C); test: as above; format: binding
T12 construct: His6-tag, Rho-MatB background, two tetramethylrhodamines (5-IATR)
T12 sequence (Q6ND88 entry or part of it C106A/R286C/Q457C/K488A/Q490A): as the sequence (Q6ND88 entry or part of it C106A/R286C/Q457C/K488A) above, with Q490A counted along it
Description: as §1, §2

[14] = molecular target: T13, T208A Rho-MatB (Rhodopseudomonas palustris, UniProt Q6ND88, C106A/K488A/Q457C/R286C/T208A); test: as above; format: binding
T13 construct: His6-tag, Rho-MatB background, two tetramethylrhodamines (5-IATR)
T13 sequence (Q6ND88 entry or part of it C106A/T208A/R286C/Q457C/K488A): as the sequence (Q6ND88 entry or part of it C106A/R286C/Q457C/K488A) above, with T208A counted along it
Description: as §1, §2

[15] = molecular target: T14, T166A Rho-MatB (Rhodopseudomonas palustris, UniProt Q6ND88, C106A/K488A/Q457C/R286C/T166A); test: as above; format: binding
T14 construct: His6-tag, Rho-MatB background, two tetramethylrhodamines (5-IATR)
T14 sequence (Q6ND88 entry or part of it C106A/T166A/R286C/Q457C/K488A): as the sequence (Q6ND88 entry or part of it C106A/R286C/Q457C/K488A) above, with T166A counted along it
Description: as §1, §2

[16] = molecular target: T15, H207A Rho-MatB (Rhodopseudomonas palustris, UniProt Q6ND88, C106A/H207A/K488A/Q457C/R286C); test: as above; format: binding
T15 construct: His6-tag, Rho-MatB background, two tetramethylrhodamines (5-IATR)
T15 sequence (Q6ND88 entry or part of it C106A/H207A/R286C/Q457C/K488A): as the sequence (Q6ND88 entry or part of it C106A/R286C/Q457C/K488A) above, with H207A counted along it
Description: as §1, §2

[17] = molecular target: T16, T167A Rho-MatB (Rhodopseudomonas palustris, UniProt Q6ND88, C106A/K488A/Q457C/R286C/T167A); test: as above; format: binding
T16 construct: His6-tag, Rho-MatB background, two tetramethylrhodamines (5-IATR)
T16 sequence (Q6ND88 entry or part of it C106A/T167A/R286C/Q457C/K488A): as the sequence (Q6ND88 entry or part of it C106A/R286C/Q457C/K488A) above, with T167A counted along it
Description: as §1, §2

[18] = molecular target: T1, Parent (Rho-MatB); test: Fluorescence titration (excitation 553 nm, emission 571 nm) of 0.5 µM fully purified Rho-MatB with ATP in 50 mM Hepes pH 7.0, 100 mM NaCl, 10 mM MgCl2, 0.3 mg/ml BSA, 20°C, quadratic binding fit.
Text: as §1
(§3) Fig 2 Nucleotide affinity for variants of Rho-MatB. Titration of ATP (circles) and ADP (triangles) to (A) 0.5 µM Rho-MatB T167A, (B) 0.5 μM Rho-MatB T303A; (C) 0.5 μM Rho-MatB S170A. Measurements are shown for one representative experiment and were in 50 mM Hepes pH 7.0, 100 mM NaCl, 10 mM MgCl2, 0.3 mg ml^-1 bovine serum albumin at 20°C. Excitation was at 553 nm, emission at 571 nm. The dissociation constants and fluorescence ratios were obtained using a quadratic binding equation (see Methods) and are listed in Table 2. The drop lines are to indicate the dissociation constants. Data are normalized to the intensity in the absence of nucleotide.
(§4) The affinity for ATP and ADP was determined by measuring the fluorescence at different concentrations of the nucleotide (Fig 2A and 2B). Both variants show similar fluorescent changes with ATP compared to the parent Rho-MatB, but the dissociation constants (Kd) are much higher (Table 2). In contrast, the affinity of ADP was much less affected by the mutations, remaining very weak (Table 2). The change in ATP affinity presumably reflects the importance of hydrogen-bonding interactions with the triphosphate, decreased by mutating to alanine.

[19] = molecular target: T9, S170A Rho-MatB; test: as above
Text: as §1, §3, §4

[20] = molecular target: T10, T303A Rho-MatB; test: as above
Text: as §1, §3, §4

[21] = molecular target: T16, T167A Rho-MatB; test: as above
Text: as §1, §3, §4

## Nc1ncnc2c1ncn2[C@@H]1O[C@H](COP(=O)(O)O)[C@@H](O)[C@H]1O [AMP, adenosine 5'-monophosphate]
[1]
  Kd: 233 µM and 255 µM

## Nc1ncnc2c1ncn2[C@@H]1O[C@H](COP(=O)(O)OP(=O)(O)OP(=O)(O)O)[C@@H](O)[C@H]1O [ATP, adenosine 5'-triphosphate]
[2]
  Kd: 33 ± 1 µM
[3]
  Kd: 50 ± 5 µM
[4]
  Kd: 52 ± 1 µM
[5]
  Kd: 17.4 ± 0.4 µM
[6]
  Kd: 2.4 ± 0.1 µM
[7]
  Kd: 8.8 ± 0.3 µM
[8]
  Kd: 56 ± 3 µM
[9]
  Kd: 11.1 ± 0.5 µM
[10]
  Kd: 4 ± 0.1 µM
[11]
  Kd: 42 ± 1 µM
[12]
  Kd: 297 ± 27 µM
[13]
  Kd: 66 ± 3 µM
[14]
  Kd: 52 ± 5 µM
[15]
  Kd: 156 ± 7 µM
[16]
  Kd: 224 ± 18 µM
[17]
  Kd: 149 ± 7 µM
[18]
  Kd: 6.4 ± 0.6 µM
[19]
  Kd: 3.8 ± 0.1 µM
[20]
  Kd: 42 ± 2 µM
[21]
  Kd: 123 ± 4 µM
